Measured values reported in patent US11998640B2, “Room temperature stable oral calcitonin formulation” (PARK THERAPEUTICS, INC., priority 2016, dated 2024).

Assays:
[1] = more potent than human calcitonin; cited from earlier work
[2] = Binary mixture study: stability of rsCT with individual excipients stored at 40° C. (recovery and purity); format: physicochemical; settings: for rsCT stability in binary mixture: 40° C.
Method: Binary mixtures were prepared by combining about 18 mg of rsCT with about 300 mg of each of the excipients, individually. Each binary mixture was evaluated in the presence or absence of 10% (w/w) water. Control samples included rsCT only. The mixtures were stored at 40° C., were pulled in duplicate after 7 days and 32 days, and were evaluated for recovery (assay activity relative to that of untreated and dried rsCT) and purity.

[3] = Water content of rsCT and excipient powders by Karl Fischer Coulometric Titration Method 1c; format: physicochemical; settings: for Dried Water content: powder after drying in a lyophilizer; for Untreated Water Content: powder in its untreated state
Method: The stability of rsCT in the binary presence of the tablet core and subcoat excipients, as well as the effect of intrinsic and extrinsic moisture on the stability of those mixtures, was thoroughly examined. Each of the components including rsCT was evaluated in its untreated state and after drying in a lyophilizer (dried). The water content of each powder was determined by Karl Fischer Coulometric Titration Method 1c prior to preparation of the binary mixtures and is presented in Table 1, below.

Compound | Potency relative to human calcitonin [1] | Average Purity (Area %) ([2]; 10% (v/w) Water Added, T = 7 days at 40° C.) [% Area %] | Average Purity (Area %) ([2]; 10% (v/w) Water Added, T = 32 days at 40° C.) [% Area %] | Average Purity (Area %) ([2]; Untreated Powders, T = 7 days at 40° C.) [% Area %] | Average Purity (Area %) ([2]; Untreated Powders, T = 32 days at 40° C.) [% Area %] | rsCT stability in binary mixture ([2]; in the presence of water and Citric Acid DC F20) | rsCT stability in binary mixture ([2]; in the presence of water and Kollicoat IR) | rsCT stability in binary mixture ([2]; in the presence of water and Prosolv HD90) | Dried Water content [3] [%] | Untreated Water Content [3] [%]
CC(C)C[C@H](NC(=O)[C@H](CCCCN)NC(=O)CNC(=O)[C@H](CC(C)C)NC(=O)[C@@H](NC(=O)[C@@H]1CSSC[C@H](N)C(=O)N[C@@H](CO)C(=O)N[C@@H](CC(N)=O)C(=O)N[C@@H](CC(C)C)C(=O)N[C@@H](CO)C(=O)N[C@@H]([C@@H](C)O)C(=O)N1)C(C)C)C(=O)N[C@@H](CO)C(=O)N[C@@H](CCC(N)=O)C(=O)N[C@@H](CCC(=O)O)C(=O)N[C@@H](CC(C)C)C(=O)N[C@@H](Cc1c[nH]cn1)C(=O)N[C@@H](CCCCN)C(=O)N[C@@H](CC(C)C)C(=O)N[C@@H](CCC(N)=O)C(=O)N[C@H](C(=O)N[C@@H](Cc1ccc(O)cc1)C(=O)N1CCC[C@H]1C(=O)N[C@@H](CCCNC(=N)N)C(=O)N[C@H](C(=O)N[C@@H](CC(N)=O)C(=O)N[C@H](C(=O)NCC(=O)N[C@@H](CO)C(=O)NCC(=O)N[C@H](C(=O)N1CCC[C@H]1C(N)=O)[C@@H](C)O)[C@@H](C)O)[C@@H](C)O)[C@@H](C)O [rsCT, salmon calcitonin] | 30-50 times | 98.2 | 95.1 | 98.9 | 96.0 | rapidly degraded with concomitant loss of recovery and purity | loss of rsCT activity and loss in purity | rapid loss of rsCT activity and non-concomitant loss in purity | 0.90 | 8.91
Magnesium Stearate | – | – | – | – | – | – | – | – | 3.51 | 5.00
